# Measurements taken from US10550127B1, “Indanylaminoazadihydrobenzofuranylacetic acids, pharmaceutical compositions for the treatment of diabetes” (Boehringer Ingelheim International GmbH, priority 2017, dated 2020).
# Target: human GPR40 receptor (Homo sapiens (Human), UniProt O14842)
# Experiment: IP1 accumulation measurements using the IPOne assay system
# Type: cell-based
# Conditions: 1321N1 cells stably expressing human GPR40, 1 h stimulation
# Description: IP1 accumulation measurements using the IPOne assay system—1321N1 cells stably expressing human GPR40 receptor (Euroscreen, Belgium) are seeded 24 h before the assay in white 384-well plates in culture medium containing 10% FCS, 1% Na-Pyruvate and 400 μg/mL G418. IP1 is assayed according to the manufacturer's description (Cisbio Bioassays, France). In brief, the assay is started by substitution of the culture medium by stimulation buffer (Hepes 10 mM, CaCl2) 1 mM, MgCl2 0.5 mM, KCl 4.2 mM, NaCl 146 mM, glucose 5.5 mM and LiCl 50 mM, pH 7.4). Cells are stimulated for 1 h at 37° C., 5% CO2 by addition of the compounds that are diluted in stimulation buffer containing LiCl. Assays are stopped by adding HTRF-conjugates (IP1-d2 and Anti-IP1 cryptate Tb) and lysis buffer, provided by the manufacturer. After an incubation time of 1 h at room temperature plates are measured using an EnVision™, Perkin Elmer. The obtained fluorescence ratios at 665/615 […] are then used to calculate the pEC50 values using Assay Explorer 3.3 Software (Accelrys, Inc.) by interpolation using an IP1 reference curve and subsequent sigmoidal curve fitting allowing for a variable hill slope.
# Sequence of human GPR40 receptor (O14842 whole entry): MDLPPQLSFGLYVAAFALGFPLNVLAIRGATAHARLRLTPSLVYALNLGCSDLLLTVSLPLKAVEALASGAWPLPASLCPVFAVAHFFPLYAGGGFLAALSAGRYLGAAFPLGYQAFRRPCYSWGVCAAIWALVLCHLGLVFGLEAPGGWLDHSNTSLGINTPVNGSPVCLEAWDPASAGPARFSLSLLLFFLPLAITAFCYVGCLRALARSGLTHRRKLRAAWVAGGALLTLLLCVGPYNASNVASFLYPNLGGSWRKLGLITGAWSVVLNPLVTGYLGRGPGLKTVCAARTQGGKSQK
row,SMILES,EC50
1,"Cc1cc(OCCC(C)(C)O)cc(C)c1-c1cccc2c1CC[C@H]2Nc1cc2c(cn1)[C@H](CC(=O)O)CO2 [Example 3, ((S)-6-{(R)-4-[4-(3-Hydroxy-3-methyl-butoxy)-2,6-dimethyl-phenyl]-indan-1-ylamino}-2,3-dihydro-furo[3,2-c]pyridin-3-yl)-acetic Acid]",21 nM
2,"Cc1cc(-c2nnn(C)n2)cc(C)c1-c1cccc2c1CC[C@H]2Nc1cc2c(cn1)[C@@H](CC(=O)O)CO2 [Example 8, ((R)-6-{(R)-4-[2,6-Dimethyl-4-(2-methyl-2H-tetrazol-5-yl)-phenyl]-indan-1-ylamino}-2,3-dihydro-furo[3,2-c]pyridin-3-yl)-acetic acid]",378 nM
3,"Cc1cc(-c2nnn(CC(C)(C)O)n2)cc(C)c1-c1ccc(F)c2c1CC[C@H]2Nc1cc2c(cn1)[C@H](CC(=O)O)CO2 [Example 15, [(S)-6-((R)-7-Fluoro-4-{4-[2-(2-hydroxo-2-methyl-propyl)-2H-tetrazol-5-yl]-2,6-dimethyl-phenyl}-indan-1-ylamino)-2,3-dihydro-furo[3,2-c]pyridin-3-yl]-acetic acid]",9 nM
4,"Cc1cc(-c2ccn(C)c(=O)n2)cc(C)c1-c1ccc(F)c2c1CC[C@H]2Nc1cc2c(cn1)[C@H](CC(=O)O)CO2 [Example 16, ((S)-6-{(R)-4-[2,6-Dimethyl-4-(1-methyl-2-oxo-1,2-dihydro-pyrimidin-4-yl)-phenyl]-7-fluoro-indan-1-ylamino}-2,3-dihydro-furo[3,2-c]pyridin-3-yl)-acetic acid]",27 nM
5,"Cc1cc(O[C@H]2CCOC2)cc(C)c1-c1ccc(F)c2c1CC[C@H]2Nc1cc2c(cn1)[C@H](CC(=O)O)CO2 [Example 12, [(S)-6-((R)-4-{2,6-Dimethyl-4-[(S)-(tetrahydro-furan-3-yl)oxy]-phenyl}-7-fluoro-indan-1-ylamino)-2,3-dihydro-furo[3,2-c]pyridin-3-yl]-acetic Acid]",73 nM
6,"Cc1cc(OC2CCOCC2)cc(C)c1-c1ccc(F)c2c1CC[C@H]2Nc1cc2c(cn1)[C@H](CC(=O)O)CO2 [Example 10, ((S)-6-{(R)-4-[2,6-Dimethyl-4-(tetrahydro-pyran-4-yloxy)-phenyl]-7-fluoro-indan-1-ylamino}-2,3-dihydro-furo[3,2-c]pyridin-3-yl)-acetic Acid]",56 nM
7,"Cc1cc(OCC2(C)COC2)cc(C)c1-c1ccc(F)c2c1CC[C@H]2Nc1cc2c(cn1)[C@H](CC(=O)O)CO2 [Example 11, ((S)-6-{(R)-4-[2,6-Dimethyl-4-(3-methyl-oxetan-3-ylmethoxy)-phenyl]-7-fluoro-indan-1-ylamino}-2,3-dihydro-furo[3,2-c]pyridin-3-yl)-acetic Acid]",37 nM
8,"Cc1cc(O[C@@H]2CCOC2)cc(C)c1-c1ccc(F)c2c1CC[C@H]2Nc1cc2c(cn1)[C@H](CC(=O)O)CO2 [Example 9, [(S)-6-((R)-4-{2,6-Dimethyl-4-[(R)-(tetrahydro-furan-3-yl)oxy]-phenyl}-7-fluoro-indan-1-ylamino)-2,3-dihydro-furo[3,2-c]pyridin-3-yl]-acetic Acid]",57 nM
9,"Cc1cc(-c2ccc(=O)n(C)c2)cc(C)c1-c1ccc(F)c2c1CC[C@H]2Nc1cc2c(cn1)[C@H](CC(=O)O)CO2 [Example 19, ((S)-6-{(R)-4-[2,6-Dimethyl-4-(1-methyl-6-oxo-1,6-dihydro-pyridin-3-yl)-phenyl]-7-fluoro-indan-1-ylamino}-2,3-dihydro-furo[3,2-c]pyridin-3-yl)-acetic Acid]",27 nM
10,"Cc1cc(OCCC(C)(C)O)cc(C)c1-c1cccc2c1CC[C@H]2Nc1cc2c(cn1)[C@@H](CC(=O)O)CO2 [Example 4, ((R)-6-{(R)-4-[4-(3-Hydroxy-3-methyl-butoxy)-2,6-dimethyl-phenyl]-indan-1-ylamino}-2,3-dihydro-furo[3,2-c]pyridin-3-yl)-acetic acid]",751 nM
11,"Cc1cc(-c2nnn(C)n2)cc(C)c1-c1ccc(F)c2c1CC[C@H]2Nc1cc2c(cn1)[C@@H](CC(=O)O)CO2 [Example 6, ((R)-6-{(R)-4-[2,6-Dimethyl-4-(2-methyl-2H-tetrazol-5-yl)-phenyl]-7-fluoro-indan-1-ylamino}-2,3-dihydro-furo[3,2-c]pyridin-3-yl)-acetic Acid]",382 nM
12,"Cc1cc(-c2cc(=O)n(C)cn2)cc(C)c1-c1ccc(F)c2c1CC[C@H]2Nc1cc2c(cn1)[C@H](CC(=O)O)CO2 [Example 18, ((S)-6-{(R)-4-[2,6-Dimethyl-4-(1-methyl-6-oxo-1,6-dihydro-pyrimidin-4-yl)-phenyl]-7-fluoro-indan-1-ylamino}-2,3-dihydro-furo[3,2-c]pyridin-3-yl)-acetic Acid]",14 nM
13,"Cc1cc(-c2ccn(C)c(=O)c2)cc(C)c1-c1ccc(F)c2c1CC[C@H]2Nc1cc2c(cn1)[C@H](CC(=O)O)CO2 [Example 17, ((S)-6-{(R)-4-[2,6-Dimethyl-4-(1-methyl-2-oxo-1,2-dihydro-pyridin-4-yl)-phenyl]-7-fluoro-indan-1-ylamino}-2,3-dihydro-furo[3,2-c]pyridin-3-yl)-acetic Acid]",12 nM
14,"Cc1cc(OCCC(C)(C)O)cc(C)c1-c1ccc(F)c2c1CC[C@H]2Nc1cc2c(cn1)[C@@H](CC(=O)O)CO2 [Example 2, ((R)-6-{(R)-7-Fluoro-4-[4-(3-hydroxy-3-methyl-butoxy)-2,6-dimethyl-phenyl]-indan-1-ylamino}-2,3-dihydro-furo[3,2-c]pyridin-3-yl)-acetic Acid]",764 nM
15,"Cc1cc(-c2nnn(C)n2)cc(C)c1-c1cccc2c1CC[C@H]2Nc1cc2c(cn1)[C@H](CC(=O)O)CO2 [Example 7, ((S)-6-{(R)-4-[2,6-Dimethyl-4-(2-methyl-2H-tetrazol-5-yl)-phenyl]-indan-1-ylamino}-2,3-dihydro-furo[3,2-c]pyridin-3-yl)-acetic Acid]",7 nM
16,"Cc1cc(OCC(C)(C)O)cc(C)c1-c1ccc(F)c2c1CC[C@H]2Nc1cc2c(cn1)[C@H](CC(=O)O)CO2 [Example 13, ((S)-6-{(R)-7-Fluoro-4-[4-(2-hydroxo-2-methyl-propoxy)-2,6-dimethyl-phenyl]-indan-1-ylamino}-2,3-dihydro-furo[3,2-c]pyridin-3-yl)-acetic Acid]",35 nM
17,"Cc1cc(-c2cnccn2)cc(C)c1-c1ccc(F)c2c1CC[C@H]2Nc1cc2c(cn1)[C@H](CC(=O)O)CO2 [Example 20, {(S)-6-[(R)-4-(2,6-Dimethyl-4-pyrazin-2-yl-phenyl)-7-fluoro-indan-1-ylamino]-2,3-dihydro-furo[3,2-c]pyridin-3-yl}-acetic acid]",9 nM
18,"Cc1cc(OCC2CCOC2)cc(C)c1-c1ccc(F)c2c1CC[C@H]2Nc1cc2c(cn1)[C@H](CC(=O)O)CO2 (stereo partly drawn) [Example 14, ((S)-6-{(R)-4-[2,6-Dimethyl-4-(tetrahydro-furan-3-ylmethoxy)-phenyl]-7-fluoro-indan-1-ylamino}-2,3-dihydro-furo[3,2-c]pyridin-3-yl)-acetic Acid]",27 nM

# System: not listed separately
# Experiment: Aqueous solubility
# Type: physicochemical
# Conditions: aqueous buffer, kinetic from dmso stock, buffer pH 2.2, 24 h shaking, 2.5% DMSO
# Description: The aqueous solubility of the compounds of the invention is determined by comparing the amount dissolved in buffer to the amount in an acetonitrile/water (1/1) solution. Starting from a 10 mM DMSO stock solution aliquots are diluted with acetonitrile/water (1/1) or buffer, respectively. After 24 h of shaking, the solutions are filtrated and analyzed by LC-UV. The amount dissolved in buffer is compared to the amount in the acetonitrile solution.
# Solubility is usually being measured from 0.001 to 0.125 mg/mL at a DMSO concentration of 2.5%. If more than 90% of the compound is dissolved in buffer, the value is marked with “>”.
row,SMILES,solubility at 24 h
1,"Cc1cc(-c2nnn(C)n2)cc(C)c1-c1ccc(F)c2c1CC[C@H]2Oc1ccc2c(c1)OC[C@H]2CC(=O)O [Example 138 in WO 2013/144098, reference compound]",< 1 µg/mL
2,"Cc1cc(OCCC(C)(C)O)cc(C)c1-c1ccc(F)c2c1CC[C@H]2Oc1ccc2c(c1)OC[C@H]2CC(=O)O [Example 16 in WO 2013/144098, reference compound]",< 1 µg/mL

# Target: cytochrome P450 2C8-isoenzyme (Homo sapiens (Human), UniProt P10632)
# Experiment: Inhibition of CYP-2C8 (amodiaquine deethylation, human liver microsomes)
# Type: in vitro ADME
# Conditions: amodiaquine 1 μM, 37° C.
# Description: All assays are carried out on a robotic system in 96 well plates. The final incubation volume contains TRIS buffer (0.1 M), MgCl2 (5 mM), human liver microsomes (0.05 mg/mL), amodiaquine (1 μM) and the test compound at five different concentrations or no compound (high control) in duplicate (e.g. highest concentration 10-50 μM with subsequent serial 1:4 dilutions). Following a short preincubation period, reactions are started with the cofactor (NADPH, 1 mM) and stopped by cooling the incubation down to 8° C. and subsequently by addition of one volume of acetonitrile. An internal standard solution—the stable isotope d5-desethylamodiaquine—is added after quenching of incubations. Peak area analyte (=metabolite formed) and internal standard is determined by LC-MS/MS. The resulting peak area ratio analyte to internal standard in these incubations is compared to a control activity containing no test compound. Within each of the assay runs, the IC50 of a positive control inhibitor (Montelukast) is determined. Experimental IC50 values are calculated by least square regression according to the following equation: % control activity=(100% control activity/(1+(I/IC50)S))−B with I=inhibitor concentration; S=slope factor; B=background activity (lower plateau of the inhibition curve)
# If the inhibition of the reaction is already >50% at the lowest concentration of the test compound, the IC50 is assigned “<lowest concentration tested” (usually <0.4 μM). If the inhibition of the reaction is still <50% at the highest concentration of the test compound, the IC50 is assigned “> highest concentration tested” (usually >50 μM).
# Sequence of cytochrome P450 2C8-isoenzyme (P10632 whole entry): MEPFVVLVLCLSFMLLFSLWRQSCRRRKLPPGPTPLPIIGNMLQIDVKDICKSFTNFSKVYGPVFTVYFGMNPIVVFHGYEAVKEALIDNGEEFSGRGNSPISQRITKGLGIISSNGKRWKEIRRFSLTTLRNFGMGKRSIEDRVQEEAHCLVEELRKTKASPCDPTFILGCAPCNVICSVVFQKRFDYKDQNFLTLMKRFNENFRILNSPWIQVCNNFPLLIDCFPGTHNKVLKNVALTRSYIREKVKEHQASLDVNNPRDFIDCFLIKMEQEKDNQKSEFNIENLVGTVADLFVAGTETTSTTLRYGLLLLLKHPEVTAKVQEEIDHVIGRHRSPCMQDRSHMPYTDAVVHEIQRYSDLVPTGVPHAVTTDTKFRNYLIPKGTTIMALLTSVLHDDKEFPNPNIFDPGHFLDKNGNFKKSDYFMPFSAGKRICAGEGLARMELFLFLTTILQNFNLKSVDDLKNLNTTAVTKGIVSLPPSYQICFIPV
row,SMILES,IC50
1,"Cc1cc(OCCC(C)(C)O)cc(C)c1-c1ccc(F)c2c1CC[C@H]2Oc1ccc2c(c1)OC[C@H]2CC(=O)O [Example 16 in WO 2013/144098, reference compound]",5000 nM
